Source: ChEMBL document CHEMBL1201862, “PubChem BioAssay data set” (2004)
Activity calls are given as the source filed them.

Experiments:
[1] = biological target: T1, Apoptotic protease-activating factor 1 (Homo sapiens, UniProt O14727); experiment: SAR analysis of small molecule Activators of Apaf-1 in a Fluorescent assay.; type: functional; settings: read-out: EC50_Mean;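 further: caspase-3 cleavage of fluorogenic Rh110 DEVD substrate downstream of apoptosome activation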
T1 sequence (O14727 whole entry): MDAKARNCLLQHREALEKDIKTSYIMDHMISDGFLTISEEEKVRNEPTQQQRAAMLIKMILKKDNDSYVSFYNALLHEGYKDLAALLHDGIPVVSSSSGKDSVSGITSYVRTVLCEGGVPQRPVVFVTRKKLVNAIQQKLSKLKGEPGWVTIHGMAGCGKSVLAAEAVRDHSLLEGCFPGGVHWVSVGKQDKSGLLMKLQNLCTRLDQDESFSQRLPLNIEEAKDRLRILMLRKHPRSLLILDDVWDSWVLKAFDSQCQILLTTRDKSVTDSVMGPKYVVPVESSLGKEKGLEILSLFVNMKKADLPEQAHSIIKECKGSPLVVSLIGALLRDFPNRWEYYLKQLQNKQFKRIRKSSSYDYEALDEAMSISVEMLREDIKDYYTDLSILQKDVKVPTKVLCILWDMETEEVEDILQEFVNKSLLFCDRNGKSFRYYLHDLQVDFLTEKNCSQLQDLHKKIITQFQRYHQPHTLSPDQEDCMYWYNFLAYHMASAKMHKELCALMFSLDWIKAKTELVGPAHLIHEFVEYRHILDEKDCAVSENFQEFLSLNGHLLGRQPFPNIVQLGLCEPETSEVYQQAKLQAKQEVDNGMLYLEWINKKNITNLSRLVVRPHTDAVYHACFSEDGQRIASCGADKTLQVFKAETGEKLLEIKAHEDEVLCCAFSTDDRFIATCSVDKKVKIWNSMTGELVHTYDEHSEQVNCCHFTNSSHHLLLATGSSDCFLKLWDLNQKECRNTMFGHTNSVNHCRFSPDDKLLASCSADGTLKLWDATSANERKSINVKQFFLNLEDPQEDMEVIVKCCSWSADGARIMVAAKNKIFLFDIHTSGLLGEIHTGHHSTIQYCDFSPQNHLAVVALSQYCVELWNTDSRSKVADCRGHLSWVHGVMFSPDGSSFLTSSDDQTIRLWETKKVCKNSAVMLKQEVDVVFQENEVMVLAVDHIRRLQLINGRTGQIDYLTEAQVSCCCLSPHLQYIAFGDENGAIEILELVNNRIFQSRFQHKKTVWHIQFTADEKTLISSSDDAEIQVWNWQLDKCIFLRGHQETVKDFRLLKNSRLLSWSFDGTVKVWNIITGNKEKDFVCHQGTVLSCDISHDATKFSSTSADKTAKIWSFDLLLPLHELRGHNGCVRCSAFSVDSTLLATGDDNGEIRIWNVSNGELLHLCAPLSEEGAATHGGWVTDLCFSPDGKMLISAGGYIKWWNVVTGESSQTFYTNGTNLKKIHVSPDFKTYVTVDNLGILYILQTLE

[2] = biological target: T2, Sentrin-specific protease 8 (Homo sapiens, UniProt Q96LD8); type: functional
T2 sequence (Q96LD8 whole entry): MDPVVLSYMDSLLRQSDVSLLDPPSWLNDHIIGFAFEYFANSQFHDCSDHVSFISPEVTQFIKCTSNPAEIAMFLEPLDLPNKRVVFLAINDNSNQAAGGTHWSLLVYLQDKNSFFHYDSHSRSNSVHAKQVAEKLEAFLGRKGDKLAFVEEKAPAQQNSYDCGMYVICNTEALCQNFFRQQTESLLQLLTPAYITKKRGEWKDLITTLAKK

[3] = biological target: T3, Polyadenylate-binding protein 1 (Homo sapiens, UniProt P11940); experiment: MLLE domain peptide-binding blockers, IC50 – biochemical, fluorescence polarization, FITC-PAM2 peptide, dose response (AID 602259); type: functional; settings: read-out: IC50_Mean
T3 sequence (P11940 whole entry, the tested form may be a part): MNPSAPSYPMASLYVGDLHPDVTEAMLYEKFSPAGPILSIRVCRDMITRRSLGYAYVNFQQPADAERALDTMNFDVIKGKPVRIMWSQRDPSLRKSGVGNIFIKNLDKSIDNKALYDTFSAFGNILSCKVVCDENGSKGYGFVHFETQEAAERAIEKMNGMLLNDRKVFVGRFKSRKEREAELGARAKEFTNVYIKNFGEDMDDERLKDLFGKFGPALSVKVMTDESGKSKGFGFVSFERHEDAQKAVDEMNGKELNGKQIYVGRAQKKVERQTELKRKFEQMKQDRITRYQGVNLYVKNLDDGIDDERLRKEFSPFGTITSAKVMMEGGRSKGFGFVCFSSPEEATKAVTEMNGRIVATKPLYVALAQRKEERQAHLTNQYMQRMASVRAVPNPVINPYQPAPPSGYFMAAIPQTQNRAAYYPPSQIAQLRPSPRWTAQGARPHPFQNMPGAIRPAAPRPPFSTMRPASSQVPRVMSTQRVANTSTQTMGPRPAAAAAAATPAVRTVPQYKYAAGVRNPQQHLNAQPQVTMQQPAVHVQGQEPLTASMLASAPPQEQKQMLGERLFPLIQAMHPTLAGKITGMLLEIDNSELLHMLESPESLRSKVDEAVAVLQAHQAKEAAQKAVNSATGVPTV

[4] = biological target: Genome polyprotein (dengue virus type 2, UniProt P29990); experiment: flavivirus cap methylation enzyme inhibition – biochemical, confirmation dose response, primary screen (AID 588689); type: functional
[5] = biological target: T3, Polyadenylate-binding protein 1; experiment: MLLE binding blockers, Cy5 peptide tracer – biochemical, fluorescence polarization, Cy5-PAM2 peptide, secondary, miRNA deadenylation inhibitor project, dose response (AID 602260); type: functional; settings: read-out: IC50_Mean
[6] = biological target: T2, Sentrin-specific protease 8; type: functional; remark: listed apart in the source
[7] = cells; type: functional, cell-based
[8] = biological target: T4, Nuclear receptor subfamily 0 group B member 1 (Homo sapiens, UniProt P51843); type: functional, cell-based;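 further: HEK293T cells transfected with SF-1 and DAX-1 plus StAR promoter luciferase reporter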
T4 sequence (P51843 whole entry): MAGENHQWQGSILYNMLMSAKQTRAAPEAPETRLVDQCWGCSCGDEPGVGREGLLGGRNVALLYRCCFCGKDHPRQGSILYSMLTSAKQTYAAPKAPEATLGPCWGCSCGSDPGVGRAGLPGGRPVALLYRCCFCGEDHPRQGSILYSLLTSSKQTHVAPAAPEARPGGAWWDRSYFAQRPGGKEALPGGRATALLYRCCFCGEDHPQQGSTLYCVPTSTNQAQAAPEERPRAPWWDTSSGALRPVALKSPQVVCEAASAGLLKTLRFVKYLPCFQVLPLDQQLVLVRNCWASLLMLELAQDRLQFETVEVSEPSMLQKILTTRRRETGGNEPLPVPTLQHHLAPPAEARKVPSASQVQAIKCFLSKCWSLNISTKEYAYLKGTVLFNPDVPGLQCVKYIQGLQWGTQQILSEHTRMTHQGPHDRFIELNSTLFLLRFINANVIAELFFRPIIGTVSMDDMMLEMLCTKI

[9] = viability of PTEN-deleted HCT116 cells – cell-based, HCT116 PTEN knockout, dose response (AID 1047); type: functional;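 further: HCT116 colon tumor cells with PTEN knocked out; cells exposed to compound for 60 hours before readout; potency for loss of cell viability measured by luminescence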
[10] = NIH3T3 cell viability loss – ATP luminescence, mouse fibroblasts, counter-screen, dose response (AID 2010); type: functional, cell-based;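 further: cells exposed to compound for about 90 hours before reading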
[11] = biological target: Arf-GAP with SH3 domain, ANK repeat and PH domain-containing protein 1 (Homo sapiens, UniProt Q9ULH1); type: functional;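 further: biochemical fluorescence polarization dose–response screen measuring inhibition of ASAP1; ASAP1 GAP domain stimulating GTP hydrolysis by truncated human ARF1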
Chain of Arf-GAP with SH3 domain, ANK repeat and PH domain-containing protein 1 (Q9ULH1 whole entry, the tested form may be a part): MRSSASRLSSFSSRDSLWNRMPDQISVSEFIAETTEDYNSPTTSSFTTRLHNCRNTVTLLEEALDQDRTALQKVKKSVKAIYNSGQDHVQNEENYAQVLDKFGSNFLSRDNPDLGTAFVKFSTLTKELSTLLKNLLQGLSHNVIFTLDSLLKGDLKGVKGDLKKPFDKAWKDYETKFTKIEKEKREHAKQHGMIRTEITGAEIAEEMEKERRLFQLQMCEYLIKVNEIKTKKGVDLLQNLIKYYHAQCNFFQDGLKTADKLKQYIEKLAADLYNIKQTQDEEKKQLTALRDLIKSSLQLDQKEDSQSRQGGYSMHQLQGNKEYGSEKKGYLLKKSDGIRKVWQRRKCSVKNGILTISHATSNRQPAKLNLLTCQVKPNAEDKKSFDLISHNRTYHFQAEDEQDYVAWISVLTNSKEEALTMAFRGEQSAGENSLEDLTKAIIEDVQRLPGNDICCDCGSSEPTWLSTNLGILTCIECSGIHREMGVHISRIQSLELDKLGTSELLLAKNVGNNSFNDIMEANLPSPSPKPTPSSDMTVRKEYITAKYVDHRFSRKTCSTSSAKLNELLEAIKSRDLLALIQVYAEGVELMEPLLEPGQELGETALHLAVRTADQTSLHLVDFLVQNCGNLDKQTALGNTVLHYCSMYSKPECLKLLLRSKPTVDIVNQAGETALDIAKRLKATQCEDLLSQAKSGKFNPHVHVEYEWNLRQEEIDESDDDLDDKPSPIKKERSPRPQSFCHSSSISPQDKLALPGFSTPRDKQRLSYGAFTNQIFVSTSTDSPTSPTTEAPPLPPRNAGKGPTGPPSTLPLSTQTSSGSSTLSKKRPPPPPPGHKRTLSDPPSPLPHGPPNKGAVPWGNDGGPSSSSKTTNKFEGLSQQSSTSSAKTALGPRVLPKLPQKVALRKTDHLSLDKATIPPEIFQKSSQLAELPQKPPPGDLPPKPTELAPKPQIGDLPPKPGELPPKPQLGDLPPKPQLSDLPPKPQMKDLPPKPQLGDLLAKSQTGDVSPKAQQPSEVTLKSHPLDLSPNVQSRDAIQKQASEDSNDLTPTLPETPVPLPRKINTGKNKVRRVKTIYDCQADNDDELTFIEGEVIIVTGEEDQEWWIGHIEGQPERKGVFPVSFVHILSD

[12] = viability of HCT116 lacking mutant beta-catenin – cell-based, human colon tumor, dose response (AID 1045); type: functional;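 further: HCT116 colon tumor cells with beta catenin knocked out; cells exposed to compound for 60 hours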
[13] = Trypanosoma cruzi growth suppression in host cells – NIH3T3 host cells, beta-gal luminescence, confirmation (AID 2044); type: functional, cell-based;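 further: intracellular parasites grown in NIH/3T3 mouse fibroblasts as host cells; luminescent beta-galactosidase reporter signal from transgenic T. cruzi replicating inside host cells; inhibitors lower the luminescence signal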
[14] = biological target: Adenosylmethionine-8-amino-7-oxononanoate aminotransferase (Mycobacterium tuberculosis, UniProt P9WQ81); experiment: Mycobacterium tuberculosis BioA enzyme inhibitor Measured in Biochemical System Using Plate Reader - 2163-02_Inhibitor_Dose_CherryPick_Activity.; type: functional, Mycobacterium tuberculosis UT205
Chain of Adenosylmethionine-8-amino-7-oxononanoate aminotransferase (P9WQ81 whole entry): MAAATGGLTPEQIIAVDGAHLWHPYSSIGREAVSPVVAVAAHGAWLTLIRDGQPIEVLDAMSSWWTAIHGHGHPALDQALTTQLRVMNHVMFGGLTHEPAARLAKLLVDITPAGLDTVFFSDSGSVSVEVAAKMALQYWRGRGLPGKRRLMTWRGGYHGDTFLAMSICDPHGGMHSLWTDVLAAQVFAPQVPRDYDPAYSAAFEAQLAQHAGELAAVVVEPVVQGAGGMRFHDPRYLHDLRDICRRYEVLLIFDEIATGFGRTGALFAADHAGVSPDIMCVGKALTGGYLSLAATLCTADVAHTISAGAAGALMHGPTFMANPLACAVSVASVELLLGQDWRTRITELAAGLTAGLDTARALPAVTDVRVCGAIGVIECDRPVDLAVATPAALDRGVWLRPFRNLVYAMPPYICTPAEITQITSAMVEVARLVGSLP

[15] = biological target: T5, Interleukin-1 receptor-associated kinase 4 (Homo sapiens, UniProt Q9NWZ3); type: functional
T5 sequence (Q9NWZ3 whole entry): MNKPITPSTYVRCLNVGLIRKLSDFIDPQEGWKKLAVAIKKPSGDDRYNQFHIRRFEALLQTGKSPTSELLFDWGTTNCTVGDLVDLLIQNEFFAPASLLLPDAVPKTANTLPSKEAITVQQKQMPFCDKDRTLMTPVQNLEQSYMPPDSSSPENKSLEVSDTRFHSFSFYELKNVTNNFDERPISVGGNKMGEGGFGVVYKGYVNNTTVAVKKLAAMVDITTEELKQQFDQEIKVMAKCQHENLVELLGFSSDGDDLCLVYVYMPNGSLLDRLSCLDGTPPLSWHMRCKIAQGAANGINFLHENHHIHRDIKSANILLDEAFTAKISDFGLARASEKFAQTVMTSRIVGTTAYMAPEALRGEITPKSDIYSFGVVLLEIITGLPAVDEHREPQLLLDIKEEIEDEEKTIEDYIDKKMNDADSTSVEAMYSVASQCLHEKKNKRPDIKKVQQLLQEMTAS

[16] = biological target: Serine/threonine-protein kinase pim-1 (Homo sapiens, UniProt P11309); type: functional
Chain of Serine/threonine-protein kinase pim-1 (P11309 whole entry): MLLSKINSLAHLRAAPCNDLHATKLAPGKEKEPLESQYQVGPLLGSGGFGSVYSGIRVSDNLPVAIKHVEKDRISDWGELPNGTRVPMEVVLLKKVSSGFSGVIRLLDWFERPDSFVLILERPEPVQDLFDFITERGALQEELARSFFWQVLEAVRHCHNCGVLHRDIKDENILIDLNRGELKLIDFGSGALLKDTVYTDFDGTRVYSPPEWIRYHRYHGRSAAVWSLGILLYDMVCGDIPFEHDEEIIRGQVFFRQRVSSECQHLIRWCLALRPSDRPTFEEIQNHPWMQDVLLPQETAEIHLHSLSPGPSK

[17] = biological target: Homeodomain-interacting protein kinase 2 (Homo sapiens, UniProt Q9H2X6); type: functional;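 further: measured within a kinome-wide kinase profiling panel, HIPK2 being one panel member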
[18] = biological target: Glycogen synthase kinase-3 beta (Homo sapiens, UniProt P49841); type: functional;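 further: value comes from a broad kinome profiling panel, with GSK3B as the panel member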
Chain of Glycogen synthase kinase-3 beta (P49841 whole entry): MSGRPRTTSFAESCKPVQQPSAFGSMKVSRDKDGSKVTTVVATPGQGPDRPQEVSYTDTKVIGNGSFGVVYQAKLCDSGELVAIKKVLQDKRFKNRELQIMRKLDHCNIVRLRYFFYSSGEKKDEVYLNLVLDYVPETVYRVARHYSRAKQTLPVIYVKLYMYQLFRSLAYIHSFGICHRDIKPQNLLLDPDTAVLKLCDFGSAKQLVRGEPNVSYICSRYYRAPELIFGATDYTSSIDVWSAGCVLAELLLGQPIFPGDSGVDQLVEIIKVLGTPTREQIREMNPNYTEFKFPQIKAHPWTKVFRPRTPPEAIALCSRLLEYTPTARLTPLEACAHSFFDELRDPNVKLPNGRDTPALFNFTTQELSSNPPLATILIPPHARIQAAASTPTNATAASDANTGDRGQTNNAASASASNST

[19] = biological target: Mitogen-activated protein kinase kinase kinase kinase 4 (Homo sapiens, UniProt O95819); type: functional
Chain of Mitogen-activated protein kinase kinase kinase kinase 4 (O95819 whole entry): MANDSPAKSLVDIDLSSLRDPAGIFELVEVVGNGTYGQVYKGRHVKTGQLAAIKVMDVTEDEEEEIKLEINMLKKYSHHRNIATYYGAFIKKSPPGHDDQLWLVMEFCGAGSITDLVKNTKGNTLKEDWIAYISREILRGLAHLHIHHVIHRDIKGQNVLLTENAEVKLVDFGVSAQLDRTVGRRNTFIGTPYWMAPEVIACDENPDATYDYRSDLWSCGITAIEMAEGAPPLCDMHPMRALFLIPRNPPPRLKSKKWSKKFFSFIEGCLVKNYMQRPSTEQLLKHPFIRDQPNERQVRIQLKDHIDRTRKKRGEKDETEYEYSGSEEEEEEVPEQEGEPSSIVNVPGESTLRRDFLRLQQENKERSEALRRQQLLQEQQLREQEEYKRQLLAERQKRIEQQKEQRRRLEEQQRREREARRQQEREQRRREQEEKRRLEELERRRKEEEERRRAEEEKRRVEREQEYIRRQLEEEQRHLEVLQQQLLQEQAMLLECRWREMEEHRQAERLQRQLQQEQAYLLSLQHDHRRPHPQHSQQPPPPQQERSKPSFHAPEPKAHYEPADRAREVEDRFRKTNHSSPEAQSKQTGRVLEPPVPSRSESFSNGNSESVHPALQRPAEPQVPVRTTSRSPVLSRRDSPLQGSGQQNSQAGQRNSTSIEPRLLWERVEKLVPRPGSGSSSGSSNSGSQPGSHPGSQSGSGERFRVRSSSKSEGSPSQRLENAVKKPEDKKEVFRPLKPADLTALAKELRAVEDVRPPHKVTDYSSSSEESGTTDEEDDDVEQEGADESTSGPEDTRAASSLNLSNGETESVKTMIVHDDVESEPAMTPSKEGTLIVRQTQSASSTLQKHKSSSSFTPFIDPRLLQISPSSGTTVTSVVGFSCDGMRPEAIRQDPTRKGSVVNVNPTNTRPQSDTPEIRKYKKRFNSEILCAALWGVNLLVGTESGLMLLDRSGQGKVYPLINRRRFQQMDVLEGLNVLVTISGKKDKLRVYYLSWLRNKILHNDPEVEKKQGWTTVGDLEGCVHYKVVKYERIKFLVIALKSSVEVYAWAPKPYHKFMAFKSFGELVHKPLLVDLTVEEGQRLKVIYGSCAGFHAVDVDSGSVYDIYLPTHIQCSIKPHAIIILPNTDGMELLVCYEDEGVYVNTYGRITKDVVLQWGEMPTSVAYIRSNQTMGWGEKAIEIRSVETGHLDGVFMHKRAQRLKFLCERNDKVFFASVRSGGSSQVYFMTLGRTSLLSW

[20] = biological target: cAMP-dependent protein kinase catalytic subunit alpha (Homo sapiens, UniProt P17612); type: functional
[21] = biological target: Dual specificity protein kinase CLK4 (Homo sapiens, UniProt Q9HAZ1); type: functional
Chain of Dual specificity protein kinase CLK4 (Q9HAZ1 whole entry): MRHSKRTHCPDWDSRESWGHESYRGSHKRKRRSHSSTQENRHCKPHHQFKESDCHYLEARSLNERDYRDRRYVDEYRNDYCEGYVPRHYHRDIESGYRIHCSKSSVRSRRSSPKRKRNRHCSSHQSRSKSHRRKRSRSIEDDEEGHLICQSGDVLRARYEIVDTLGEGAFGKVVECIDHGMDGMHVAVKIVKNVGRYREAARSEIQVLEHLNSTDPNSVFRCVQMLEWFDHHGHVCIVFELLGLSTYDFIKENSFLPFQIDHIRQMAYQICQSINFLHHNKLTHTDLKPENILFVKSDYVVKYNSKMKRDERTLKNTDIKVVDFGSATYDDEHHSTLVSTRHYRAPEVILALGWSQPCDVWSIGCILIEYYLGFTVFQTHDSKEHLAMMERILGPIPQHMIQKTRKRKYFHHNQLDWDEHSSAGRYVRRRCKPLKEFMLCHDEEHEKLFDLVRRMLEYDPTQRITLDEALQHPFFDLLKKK

[22] = biological target: Cell division cycle 7-related protein kinase (Homo sapiens, UniProt O00311); type: functional;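 further: value obtained from a kinome-wide kinase panel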
[23] = biological target: MAP kinase-interacting serine/threonine-protein kinase 2 (Homo sapiens, UniProt Q9HBH9); type: functional

## COC(=O)[C@@H]1COC(c2cc([N+](=O)[O-])ccc2[N+](=O)[O-])=N1
[1]
  EC50: > 100 µM (inactive)

## Oc1ccc(CN2CCCCC2)nc1O
[2]
  IC50: 3.73 µM (active)
[3]
  IC50: 57.9 µM (inactive)
[4]
  IC50: 64.9 µM (active)
[5]
  IC50: > 66 µM (inactive)
[6]
  IC50: 15.5 µM (active)

## C=CCOc1ccc(/C=N/Nc2ccccn2)cc1OC
[7]
  IC50: > 67.5 µM (inactive)
[8]
  IC50: > 67.5 µM (inactive)

## N#Cc1cc([N+](=O)[O-])ccc1Oc1cccc(/C=N/NC(=O)c2ccc(Cl)cc2)c1
[9]
  EC50: 48.5 µM (active)
[10]
  EC50: > 60 µM (not active)
[11]
  IC50: 32.8 µM (inactive)
[12]
  EC50: 51.9 µM (active)
[13]
  EC50: 0.616 µM (active)

## O=C(Nc1nccs1)[C@H]1[C@H](CO)[C@H]2Cn3c(ccc(-c4cccnc4)c3=O)[C@H]2N1CC1CCCC1
[14]
  AC50: 8.95 µM (active)

## CCCCN1C(C)=CC(=C2C(=O)c3ccccc3C2=O)C=C1C
[7]
  IC50: > 67.5 µM (inactive)
[8]
  IC50: > 67.5 µM (inactive)

## O=C(C[C@@H]1C[C@@H]2c3cc(NC(=O)c4cccnc4)ccc3O[C@@H]2[C@@H](CO)O1)NCCc1ccccc1
[14]
  AC50: 6.92 µM (active)

## c1ccc(Cn2nnc(-c3ccc4[nH]ncc4c3)c2-c2ccccc2)cc1
[15]
  Ki: > 10 µM (inactive)
[16]
  Ki: 3.16 µM (active)
[17]
  Ki: 1 µM (active)
[18]
  Ki: 0.01 µM (active)
[19]
  Ki: 0.794 µM (active)
[20]
  Ki: 0.0316 µM (active)
[21]
  Ki: 0.00501 µM (active)
[22]
  Ki: 0.000631 µM (active)
[23]
  Ki: 0.0398 µM (active)
